Reference: patent publication US7189691B2, “Methods and compositions for treating leukemia” (The Administrators of the Tulane Educational Fund, priority 2004, dated 2007)

What was measured:
[1] = system: RS4;11; assay: Annexin-V/PI binding assay (flow cytometry); type: cell-based; settings: RS4;11, 50 μg/ml
Experimental: (§1) To test the possibility that growth inhibition of t(4;11) leukemia cells exposed to PFWT is the result of apoptotic cell death, annexin-V labeling of the cell membrane of the leukemic cells examined in Example 5 was used to assess apoptosis as follows (Koopman, G., et al., Blood 1994 84: 1415–1420.). Annexin V binding assays were carried out using a Vibrant™ apoptosis kit (Molecular Probes). […] For annexin V-propidium iodide (PI) staining, cells were harvested, washed once with PBS and resuspended in 100 μl annexin binding buffer. 5 μl annexin V conjugated to Alexa Fluor 488 and 2 μl of 100 μg/ml PI were added to the cell suspension and incubated at room temperature for 15 minutes. The cells were then washed once in annexin binding buffer and resuspended in 400 μl annexin binding buffer. These samples were then analyzed by flow cytometry using Coulter benchtop flow cytometer. The cells were excited by a 488 nm wavelength laser beam and the emission was measured using a 530 nm filter for annexin V and a 575 nm filter for PI.

[2] = system: MV4-11; assay: Annexin-V/PI binding assay (flow cytometry); type: cell-based; settings: MV4-11, 50 μg/ml
Experimental: as §1

[3] = system: MOLT-4; assay: Annexin-V/PI binding assay (flow cytometry); type: cell-based; settings: MOLT-4, 50 μg/ml
Experimental: as §1

[4] = target: T1, AF4-AF9 protein complexes (Homo sapiens, UniProt P42568); assay: Co-localization of GFP-AF4R1 3A- and RFP-AF9 in transfected NIH-3T3 cells; type: cell-based, mouse; settings: overnight
T1 construct: expressed in transfected cells; host or cells: NIH-3T3
T1 sequence (P42568 1-568): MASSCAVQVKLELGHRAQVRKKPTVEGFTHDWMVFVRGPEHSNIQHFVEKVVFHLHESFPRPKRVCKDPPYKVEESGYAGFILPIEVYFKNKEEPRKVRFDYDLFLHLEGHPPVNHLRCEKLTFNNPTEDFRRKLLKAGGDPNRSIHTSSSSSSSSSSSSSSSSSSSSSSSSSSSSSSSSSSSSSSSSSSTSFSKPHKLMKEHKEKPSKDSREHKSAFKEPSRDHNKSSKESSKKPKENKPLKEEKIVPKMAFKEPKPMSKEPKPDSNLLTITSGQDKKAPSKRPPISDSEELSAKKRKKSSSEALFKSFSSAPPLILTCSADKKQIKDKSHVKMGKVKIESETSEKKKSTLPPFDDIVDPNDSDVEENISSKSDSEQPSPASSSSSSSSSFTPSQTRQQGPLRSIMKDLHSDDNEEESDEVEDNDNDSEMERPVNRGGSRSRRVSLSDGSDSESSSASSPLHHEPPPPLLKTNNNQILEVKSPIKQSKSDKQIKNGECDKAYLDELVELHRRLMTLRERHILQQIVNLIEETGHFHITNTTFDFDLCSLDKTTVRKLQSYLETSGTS
Experimental: To determine whether PFWT disrupts AF4-AF9 protein complexes in living cells, the properties of a fragment of mouse AF4 protein encompassing amino acids 623–811 (SEQ ID NO: 115) was used. The entire murine AF4 sequence can be obtained from the NCBI database at Accession Number AAD08668.
To test whether disruption of the AF4-AF9 interaction by PFWT results in delocalization of AF4R1 3A- from the nucleus to the cytoplasm even when co-expressed with exogenous AF9, the following assay was performed.
An enhanced green fluorescent protein (GFP) expression vector encoding mouse AF4 amino acids 623–811 SEQ ID NO: 115 (pEGFP-AF4R1 3A-), and a red fluorescent protein (RFP)-tagged AF9 expression vector were produced as described (Erfurth, F., et al., 2004, cited above; Srinivasan 2003, cited above; Hemenway, C. S., et al., 2001, cited above). NIH-3T3 cells were grown in chamber slides containing DMEM supplemented with 1-glutamine, 1% non-essential amino acids, 1% sodium pyruvate, 10% calf serum, and antibiotics. Cells were then transiently transfected with the expression vectors expressing fluorescent protein-tagged AF4 and AF9 using Lipofectamine™ 2000 reagent (Invitrogen). After 24 h the cells were treated with the peptides PFWT or PFmut at a concentration of 25 or 50 μg/ml and incubated overnight.
Cells on chamber slides were washed in PBS, fixed with 3% paraformaldehyde for 15 minutes, treated with 300 nM 4′,6-Diamidino-2-phenyindole (DAPI) nuclear counterstain for 5 minutes, and mounted with coverslips using Prolong™ media (Molecular Probes). Slides were visualized by deconvolution fluorescence microscopy with a Leica DMRXA upright microscope (Meyer Instruments) equipped with a Sensicam™ QE CCD digital camera (Cooke Corporation) and filter sets for both EGFP (exciter HQ480/20, dichroic Q495LP, and emitter HQ510/20m) and RFP (exciter 560/55x, dichroic Q595LP, and emitter HQ645/75m). Images were captured, deconvolved, and analyzed with Slidebook™ software (Intelligent Imaging Innovations).
Image analysis entailed a pixel correlation algorithm between the EGFP and RFP fluorescence channels within each image through creation of a digital binary overlay (thresholding) over arbitrary regions in both channels. This statistical measurement determines the degree in which two pixels in an image correspond to one another. If the trend in number of pixels in both EGFP and RFP channels overlap or co-localize entirely (i.e., perfect pixel set correlation), they have an assigned correlation measurement of 1.0.

Row | Structure (SMILES) | % Total apoptotic cells [1] [%] | % early apoptotic cells [1] [%] | % Total apoptotic cells [2] [%] | % early apoptotic cells [2] [%] | % Total apoptotic cells [3] [%] | % early apoptotic cells [3] [%] | localization of GFP-AF4R1 3A- relative to RFP-AF9 ([4]; 25 μg/ml) | pixel correlation between EGFP and RFP channels ([4]; 25 μg/ml) | localization of GFP-AF4R1 3A- relative to RFP-AF9 ([4]; 50 μg/ml) | pixel correlation between EGFP and RFP channels ([4]; 50 μg/ml)
1 | CC[C@H](C)[C@H](NC(=O)[C@H](CCCCN)NC(=O)[C@@H](NC(=O)[C@H](Cc1c[nH]c2ccccc12)NC(=O)[C@H](CC(C)C)NC(=O)[C@H](CCCCN)NC(=O)[C@H](CCCCN)NC(=O)[C@H](Cc1c[nH]c2ccccc12)NC(=O)[C@H](CCCCN)NC(=O)[C@H](CCSC)NC(=O)[C@H](CCCNC(=N)N)NC(=O)[C@H](CCCNC(=N)N)NC(=O)[C@H](CC(N)=O)NC(=O)[C@H](CCC(N)=O)NC(=O)[C@H](Cc1ccccc1)NC(=O)[C@H](Cc1c[nH]c2ccccc12)NC(=O)[C@H](CCCCN)NC(=O)[C@@H](NC(=O)[C@H](CCC(N)=O)NC(=O)[C@@H](N)CCCNC(=N)N)[C@@H](C)CC)C(C)C)C(=O)N[C@@H](CC(=O)O)C(=O)N[C@@H](CC(C)C)C(=O)N[C@@H](CC(=O)O)C(=O)N[C@@H](CC(C)C)C(=O)N[C@@H](CC(C)C)C(=O)N[C@@H](CO)C(=O)N[C@@H](CCCNC(=N)N)C(=O)N[C@H](C(=O)N1CCC[C@H]1C(=O)O)C(C)C [PFWT] | 34.64 | 26.18 | 45.3 | 28.42 | 18.8 | 11.64 | partially delocalizes or is displaced from RFP-AF9 | negative correlation value | little or no GFP-AF4R1 3A- remains in the nucleus | negatively correlated
2 | CC[C@H](C)[C@H](NC(=O)[C@H](CCC(N)=O)NC(=O)[C@@H](N)CCCNC(=N)N)C(=O)N[C@@H](CCCCN)C(=O)N[C@@H](Cc1c[nH]c2ccccc12)C(=O)N[C@@H](Cc1ccccc1)C(=O)N[C@@H](CCC(N)=O)C(=O)N[C@@H](CC(N)=O)C(=O)N[C@@H](CCCNC(=N)N)C(=O)N[C@@H](CCCNC(=N)N)C(=O)N[C@@H](CCSC)C(=O)N[C@@H](CCCCN)C(=O)N[C@@H](Cc1c[nH]c2ccccc12)C(=O)N[C@@H](CCCCN)C(=O)N[C@@H](CCCCN)C(=O)N[C@@H](CC(C)C)C(=O)N[C@@H](Cc1c[nH]c2ccccc12)C(=O)N[C@@H](CCC(=O)O)C(=O)N[C@@H](CCCCN)C(=O)N[C@@H](CO)C(=O)N[C@@H](CC(=O)O)C(=O)N[C@@H](CC(C)C)C(=O)N[C@@H](CC(=O)O)C(=O)N[C@@H](CC(C)C)C(=O)N[C@@H](CC(C)C)C(=O)N[C@@H](CO)C(=O)N[C@@H](CCCNC(=N)N)C(=O)N[C@H](C(=O)N1CCC[C@H]1C(=O)O)C(C)C [PFmut] | 7.22 | 1.36 | 23.16 | 8.26 | 6.64 | 1.36 | no observable effect | significantly positively correlated | displaces some GFP-AF4R1 3A- from RFP-AF9 into the cytoplasm | strongly positively correlated
